Experimental data as given in the supplement of paper PMC10307832.

Tests used:
Experiment in all cases: relative viability (nuclei count vs DMSO), 5 days (fraction); higher = more cells survive
R406 + Bortezomib = compound: COc1cc(Nc2ncc(F)c(Nc3ccc4c(n3)NC(=O)C(C)(C)O4)n2)cc(OC)c1OC [R406] + CC(C)C[C@H](NC(=O)[C@H](Cc1ccccc1)NC(=O)c1cnccn1)B(O)O [Bortezomib] (partner 0.002 µM)
Outline: (§1)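 Relative viability divides the nuclei count in treated wells by that in vehicle wells. Lung cancer cell lines were seeded in 1536-well plates, dosed by pin tool the next day, and fixed and stained after 5 days in one step with final 0.05% Triton X-100, 1% formaldehyde and 1 ug/ml Hoechst. Dosing was a single drug or a fixed anchor-drug dose plus five library-drug doses (not always all listed) in √10 steps, and values are medians of duplicate plates imaged at 4×.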

Daporinad + Foretinib = compound: O=C(/C=C/c1cccnc1)NCCCCC1CCN(C(=O)c2ccccc2)CC1 [Daporinad] + COc1cc2c(Oc3ccc(NC(=O)C4(C(=O)Nc5ccc(F)cc5)CC4)cc3F)ccnc2cc1OCCCN1CCOCC1 [Foretinib] (partner 0.25 µM)
Outline: as §1

R406 + Dasatinib = compound: COc1cc(Nc2ncc(F)c(Nc3ccc4c(n3)NC(=O)C(C)(C)O4)n2)cc(OC)c1OC [R406] + Cc1nc(Nc2ncc(C(=O)Nc3c(C)cccc3Cl)s2)cc(N2CCN(CCO)CC2)n1 [Dasatinib] (partner 0.075 µM)
Outline: as §1

Daporinad + Trametinib = compound: O=C(/C=C/c1cccnc1)NCCCCC1CCN(C(=O)c2ccccc2)CC1 [Daporinad] + CC(=O)Nc1cccc(-n2c(=O)n(C3CC3)c(=O)c3c(Nc4ccc(I)cc4F)n(C)c(=O)c(C)c32)c1 [Trametinib] (partner 0.02 µM)
Outline: as §1

| Cell Line | relative viability (R406 + Bortezomib; first compound 0.08 µM) | relative viability (R406 + Bortezomib; first compound 0.253 µM) | relative viability (R406 + Bortezomib; first compound 0.8 µM) | relative viability (R406 + Bortezomib; first compound 2.53 µM) | relative viability (R406 + Bortezomib; first compound 8 µM) | relative viability (Daporinad + Foretinib; first compound 0.0005 µM) | relative viability (Daporinad + Foretinib; first compound 0.001581 µM) | relative viability (Daporinad + Foretinib; first compound 0.005 µM) | relative viability (Daporinad + Foretinib; first compound 0.01581 µM) | relative viability (R406 + Dasatinib; first compound 0.08 µM) | relative viability (R406 + Dasatinib; first compound 0.253 µM) | relative viability (R406 + Dasatinib; first compound 0.8 µM) | relative viability (R406 + Dasatinib; first compound 2.53 µM) | relative viability (R406 + Dasatinib; first compound 8 µM) | relative viability (Daporinad + Trametinib; first compound 0.0005 µM) | relative viability (Daporinad + Trametinib; first compound 0.001581 µM) | relative viability (Daporinad + Trametinib; first compound 0.005 µM) | relative viability (Daporinad + Trametinib; first compound 0.01581 µM) |
| --- | --- | --- | --- | --- | --- | --- | --- | --- | --- | --- | --- | --- | --- | --- | --- | --- | --- | --- |
| IA-LM | 0.878 | 0.841 | 0.815 | 0.904 | 0.705 | 1.06 | 1.12 | 1.29 | 1.26 | – | – | – | – | – | – | – | – | – |
| NCI-H322M | 1.19 | 0.994 | 1.19 | 0.534 | 0.803 | 0.964 | 1.13 | 0.886 | 0.478 | 0.237 | 0.245 | 0.26 | 0.24 | 0.208 | 0.507 | 0.484 | 0.504 | 0.441 |
| NCI-H3122 | 0.97 | 0.972 | 1.03 | 1.01 | 0.947 | 0.869 | 0.955 | 0.988 | 1.05 | 0.743 | 0.844 | 0.832 | – | 0.491 | 0.165 | 0.227 | 0.213 | 0.217 |
| NCI-H441 | – | 0.383 | 0.713 | – | 0.331 | 1.24 | 0.997 | 1.19 | 0.911 | 0.669 | 0.659 | 0.851 | 0.429 | 0.318 | 0.351 | 0.426 | 0.496 | 0.573 |
| COR-L23 | 0.942 | 1.14 | 1.06 | 0.907 | 0.523 | 0.993 | 1.01 | 1.14 | 0.282 | 0.464 | 0.469 | 0.598 | 0.379 | 0.158 | 0.577 | 0.662 | 0.737 | 0.302 |
| NCI-H2087 | 0.815 | 1.02 | 0.847 | 0.428 | 0.751 | 1.1 | 1.3 | 1.19 | 0.978 | 0.782 | 0.903 | 1.15 | – | 0.481 | 0.18 | 0.213 | 0.263 | 0.22 |
| LC-2-ad | 0.973 | 1.09 | 0.987 | 0.111 | 0.133 | 1.05 | 0.97 | 0.969 | 1.06 | 0.572 | 0.649 | 0.62 | 0.282 | 0.203 | 0.907 | 0.983 | 0.863 | 0.914 |
| NCI-H1915 | 0.963 | 1.01 | 0.985 | 0.79 | 0.898 | 1.16 | 1.07 | 1.17 | 1.08 | 0.301 | 0.321 | 0.31 | – | 0.269 | 0.28 | 0.309 | 0.284 | 0.368 |
| NCI-H1623 | – | – | – | – | – | 0.726 | 0.754 | 0.801 | 0.866 | 0.534 | 0.507 | 0.587 | 0.482 | 0.526 | – | – | – | – |
| NCI-H2023 | 0.914 | 1.04 | 1.08 | 0.0862 | 0.29 | 0.818 | 0.682 | 0.743 | 0.975 | 0.519 | 0.642 | 0.699 | 0.357 | 0.0963 | 0.605 | 0.523 | 0.539 | 0.621 |
